One assay concerns the target Coagulation factor X (Homo sapiens, UniProt P00742). The assay is described as follows: In vitro inhibitory activity against human Coagulation factor X.
For a further assay, the target named is T1, Serine protease 1 (Bos taurus, UniProt P00760).
T1 sequence (P00760 whole entry): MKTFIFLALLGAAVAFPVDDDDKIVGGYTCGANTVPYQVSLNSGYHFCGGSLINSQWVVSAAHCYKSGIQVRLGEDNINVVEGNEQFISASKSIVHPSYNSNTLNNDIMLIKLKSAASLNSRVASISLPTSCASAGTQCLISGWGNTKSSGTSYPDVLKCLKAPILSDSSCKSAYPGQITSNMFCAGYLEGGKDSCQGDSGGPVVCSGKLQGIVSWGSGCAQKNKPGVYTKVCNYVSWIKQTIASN
The assay is described as follows: In vitro inhibitory activity against bovine cationic trypsin.

The target in the next assay is Prothrombin (Homo sapiens, UniProt P00734).
A further assay is filed under the species Homo sapiens. The assay is described as follows: Concentration required to double the prothrombin based clotting time in human plasma. It is filed as functional.

As a reminder, the Ki is the equilibrium dissociation constant of an inhibitor or competing ligand from its target.

Sequence of Coagulation factor X (P00742 41-179 limits assumed): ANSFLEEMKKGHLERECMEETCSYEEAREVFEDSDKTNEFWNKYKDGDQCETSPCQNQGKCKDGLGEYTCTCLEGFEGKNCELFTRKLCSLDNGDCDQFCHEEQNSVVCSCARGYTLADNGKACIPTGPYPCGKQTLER
Sequence of Coagulation factor X (P00742 235-488 limits assumed): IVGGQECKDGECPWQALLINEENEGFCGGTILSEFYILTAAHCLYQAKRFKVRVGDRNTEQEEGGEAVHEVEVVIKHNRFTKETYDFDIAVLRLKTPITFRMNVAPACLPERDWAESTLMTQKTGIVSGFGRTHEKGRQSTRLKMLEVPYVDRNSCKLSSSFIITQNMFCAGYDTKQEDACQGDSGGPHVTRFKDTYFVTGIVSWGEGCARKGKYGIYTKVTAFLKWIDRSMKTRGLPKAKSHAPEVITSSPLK
Description for Prothrombin: In vitro inhibitory activity against human coagulation factor II

Consider `CCCc1nc2cc(OC3CCN(C(C)=N)CC3)ccc2n1Cc1ccc2ccc(C(=N)N)cc2c1`, for which the values for the inhibition constant Ki at Coagulation factor X, on Serine protease 1 and at Prothrombin were 4.5 nM, 16 nM and 2400 nM, respectively.
For `CC(=N)N1CCC(Oc2ccc3c(c2)nc(C)n3Cc2ccc3ccc(C(=N)N)cc3c2)CC1` the same measures were 6.2 nM, 16 nM and 3900 nM.
As to `CC(=N)N1CCC(Oc2ccc3nc(CCC(=O)O)n(Cc4ccc5ccc(C(=N)N)cc5c4)c3c2)CC1`, the values for the Ki on Coagulation factor X, on Serine protease 1 and at Prothrombin were 1.3 nM, 18 nM and 2670 nM, respectively.
For `COC(=O)C(C)CN(c1ccc2nc(C)n(Cc3ccc4ccc(C(=N)N)cc4c3)c2c1)C1CCN(C(C)=N)CC1` (stereo unspecified) the same measures were 1.1 nM, 41 nM and 300 nM.
Take `CC(=N)N1CCC(Oc2ccc3c(c2)nc(C(C)(C)C)n3Cc2ccc3ccc(C(=N)N)cc3c2)CC1`: the values for the Ki at Coagulation factor X, at Serine protease 1 and at Prothrombin were 2 nM, 18 nM and 950 nM, respectively.
On to `CC(=N)N1CCC(N(CCCC(=O)O)c2ccc3nc(C)n(Cc4ccc5ccc(C(=N)N)cc5c4)c3c2)CC1`, for which the values for the Ki at Coagulation factor X, at Serine protease 1 and on Prothrombin were 420 nM, 670 nM and 5000 nM, respectively.
As to `CC(=N)N1CCC(N(CC(C)C(=O)O)c2ccc3c(c2)nc(C)n3Cc2ccc3ccc(C(=N)N)cc3c2)CC1` (stereo unspecified), the figures for the Ki on Coagulation factor X, at Serine protease 1 and on Prothrombin were 80 nM, 120 nM and 5000 nM, respectively.
Regarding `CC(=N)N1CCC(Oc2ccc3nc(C)n(Cc4ccc5ccc(C(=N)N)cc5c4)c3c2)CC1`, in the assay listed under Homo sapiens, the PT was found to be 350 nM. This compound returned a Ki at Prothrombin of 230 nM.
For the compound `CC(=N)N1CCC(Oc2ccc3nc(C(C)C)n(Cc4ccc5ccc(C(=N)N)cc5c4)c3c2)CC1`, the values for the Ki on Coagulation factor X, on Serine protease 1 and on Prothrombin were 0.026 nM, 5.7 nM and 32 nM, respectively. This compound also registered a PT in the assay listed under Homo sapiens of 68 nM.
The like results for `CCCc1nc2ccc(OC3CCN(C(C)=N)CC3)cc2n1Cc1ccc2ccc(C(=N)N)cc2c1` were, in that order, 0.23 nM, 6.8 nM, 70 nM and 290 nM.
For `CC(=N)N1CCC(N(CC(C)C(=O)O)c2ccc3nc(C)n(Cc4ccc5ccc(C(=N)N)cc5c4)c3c2)CC1` (stereo unspecified), the values for the Ki on Coagulation factor X, on Serine protease 1 and on Prothrombin were 3 nM, 47 nM and 650 nM, respectively.
`CC(=N)N1CCC(Oc2ccc3c(c2)nc(C(C)C)n3Cc2ccc3ccc(C(=N)N)cc3c2)CC1`: the figures for the Ki at Coagulation factor X and at Serine protease 1 were 2 nM and 16 nM, respectively.
For the compound `COC(=O)CCCN(c1ccc2nc(C)n(Cc3ccc4ccc(C(=N)N)cc4c3)c2c1)C1CCN(C(C)=N)CC1`, the Ki was determined as 300 nM at Coagulation factor X, 260 nM at Serine protease 1 and 4610 nM on Prothrombin.
The like results for `CC(=N)N1CCC(N(CC(N)=O)c2ccc3nc(C)n(Cc4ccc5ccc(C(=N)N)cc5c4)c3c2)CC1` were, in that order, 0.46 nM, 28 nM and 490 nM.
In the case of `CC(=N)N1CCC(Oc2ccc3nc(CCC(N)=O)n(Cc4ccc5ccc(C(=N)N)cc5c4)c3c2)CC1`, the Ki at Coagulation factor X is 1 nM; on Serine protease 1 it was 4.4 nM; at Prothrombin, 590 nM.
For `CCC(C)c1nc2cc(OC3CCN(C(C)=N)CC3)ccc2n1Cc1ccc2ccc(C(=N)N)cc2c1` (stereo unspecified) the same measures were 3.3 nM, 13 nM and 2300 nM.
For `COC(=O)CN(c1ccc2nc(C)n(Cc3ccc4ccc(C(=N)N)cc4c3)c2c1)C1CCN(C(C)=N)CC1`, the Ki at Coagulation factor X was determined as 0.3 nM; on Serine protease 1, 11 nM; on Prothrombin, 98 nM.
As to `CCCCc1nc2ccc(OC3CCN(C(C)=N)CC3)cc2n1Cc1ccc2ccc(C(=N)N)cc2c1`, the results for the Ki at Coagulation factor X, on Serine protease 1 and at Prothrombin were 0.23 nM, 5.7 nM and 230 nM, respectively. In the assay filed under Homo sapiens, the PT was determined as 625 nM.
Consider `CC(=N)N1CCC(Oc2ccc3c(c2)nc(CCC(N)=O)n3Cc2ccc3ccc(C(=N)N)cc3c2)CC1`, for which the Ki on Coagulation factor X was 3.6 nM; at Serine protease 1, 10 nM; at Prothrombin, > 5000 nM.
In the case of `CC(=N)N1CCC(Oc2ccc3ncn(Cc4ccc5ccc(C(=N)N)cc5c4)c3c2)CC1`, the values for the Ki on Coagulation factor X, at Serine protease 1 and on Prothrombin were 2.9 nM, 50 nM and 810 nM, respectively. Further, in the assay filed under Homo sapiens, the PT stood at 450 nM.
Consider `CC(=N)N1CCC(N(C(=O)CCC(=O)O)c2ccc3nc(C)n(Cc4ccc5ccc(C(=N)N)cc5c4)c3c2)CC1`, for which the results for the Ki on Coagulation factor X, at Serine protease 1 and on Prothrombin were 417 nM, 670 nM and 5000 nM, respectively.
As to `CCC(C)c1nc2ccc(OC3CCN(C(C)=N)CC3)cc2n1Cc1ccc2ccc(C(=N)N)cc2c1` (stereo unspecified), the results for the Ki at Coagulation factor X, on Serine protease 1 and at Prothrombin were 0.12 nM, 10 nM and 160 nM, respectively. The same compound yielded a PT in the assay listed under Homo sapiens of 280 nM.
For the compound `CCOC(=O)CCC(=O)N(c1ccc2c(c1)nc(C)n2Cc1ccc2ccc(C(=N)N)cc2c1)C1CCN(C(C)=N)CC1`, the Ki worked out at 370 nM at Coagulation factor X, 800 nM at Serine protease 1 and 5000 nM on Prothrombin.
Take `COC(=O)C(C)CN(c1ccc2c(c1)nc(C)n2Cc1ccc2ccc(C(=N)N)cc2c1)C1CCN(C(C)=N)CC1` (stereo unspecified): the inhibition constant Ki on Coagulation factor X amounted to 80 nM; at Serine protease 1, 160 nM; on Prothrombin, 5000 nM.
Consider `CC(=N)N1CCC(Oc2ccc3c(c2)nc(CCC(=O)O)n3Cc2ccc3ccc(C(=N)N)cc3c2)CC1`, for which the Ki on Coagulation factor X was 5.9 nM; on Serine protease 1 it was 14 nM; on Prothrombin, > 5000 nM.
The like results for `CCc1nc2cc(OC3CCN(C(C)=N)CC3)ccc2n1Cc1ccc2ccc(C(=N)N)cc2c1` were, in that order, 4 nM, 17 nM and 2100 nM.
`CCc1nc2ccc(OC3CCN(C(C)=N)CC3)cc2n1Cc1ccc2ccc(C(=N)N)cc2c1`: the Ki on Coagulation factor X is 0.087 nM; at Serine protease 1 it was 7.7 nM; on Prothrombin it was 60 nM. This compound also registered a PT in the assay listed under Homo sapiens of 130 nM.
Consider `CC(=N)N1CCC(Oc2ccc3c(c2)ncn3Cc2ccc3ccc(C(=N)N)cc3c2)CC1`, for which the results for the Ki on Coagulation factor X, at Serine protease 1 and at Prothrombin were 6.3 nM, 8.2 nM and > 5000 nM, respectively.
As for `CCCCc1nc2cc(OC3CCN(C(C)=N)CC3)ccc2n1Cc1ccc2ccc(C(=N)N)cc2c1`, the Ki on Coagulation factor X came to 2.8 nM; on Serine protease 1, 14 nM; at Prothrombin, 2000 nM.
In the case of `CC(=N)N1CCC(Oc2ccc3nc(C(C)(C)C)n(Cc4ccc5ccc(C(=N)N)cc5c4)c3c2)CC1`, the values for the Ki at Coagulation factor X, at Serine protease 1 and at Prothrombin were 0.046 nM, 7 nM and 48 nM, respectively. The compound also displayed a PT in the assay filed under Homo sapiens of 260 nM.
`CC(=N)N1CCC(N(CCCC(=O)O)c2ccc3c(c2)nc(C)n3Cc2ccc3ccc(C(=N)N)cc3c2)CC1`: the Ki worked out at 370 nM on Coagulation factor X, 800 nM at Serine protease 1 and 5000 nM on Prothrombin.
As for `COC(=O)CN(c1ccc2c(c1)nc(C)n2Cc1ccc2ccc(C(=N)N)cc2c1)C1CCN(C(C)=N)CC1`, the Ki is 7.6 nM on Serine protease 1 and 2700 nM on Prothrombin.
For the compound `CCOC(=O)CCC(=O)N(c1ccc2nc(C)n(Cc3ccc4ccc(C(=N)N)cc4c3)c2c1)C1CCN(C(C)=N)CC1`, the Ki on Coagulation factor X was 300 nM; on Serine protease 1, 256 nM; on Prothrombin, 4600 nM.
On to `COC(=O)CCCN(c1ccc2c(c1)nc(C)n2Cc1ccc2ccc(C(=N)N)cc2c1)C1CCN(C(C)=N)CC1`, for which the Ki at Coagulation factor X stood at 30 nM; at Serine protease 1 it was 60 nM; at Prothrombin it was 6000 nM.
